Consider nine compounds from ChEMBL document CHEMBL1130579, “Design and synthesis of curacin a analogs with varied side chain structures” (Bioorg Med Chem Lett, 1997).

Converted amounts (≈) assume the structure as drawn.

Assay [1] deals with T1, Tubulin alpha chain (Sus scrofa, UniProt P02550). In words: Compound was tested for inhibitory activity against tubulin polymerization. It counts as functional.
Assay [2] deals with Tubulin alpha chain (Sus scrofa) (UniProt P02550). In words: Compound was tested for percentage of tubulin polymerized at 50 uM dose of compound. The assay is classed as functional.
Chain of Tubulin alpha chain (Sus scrofa) (P02550 whole entry, looked up): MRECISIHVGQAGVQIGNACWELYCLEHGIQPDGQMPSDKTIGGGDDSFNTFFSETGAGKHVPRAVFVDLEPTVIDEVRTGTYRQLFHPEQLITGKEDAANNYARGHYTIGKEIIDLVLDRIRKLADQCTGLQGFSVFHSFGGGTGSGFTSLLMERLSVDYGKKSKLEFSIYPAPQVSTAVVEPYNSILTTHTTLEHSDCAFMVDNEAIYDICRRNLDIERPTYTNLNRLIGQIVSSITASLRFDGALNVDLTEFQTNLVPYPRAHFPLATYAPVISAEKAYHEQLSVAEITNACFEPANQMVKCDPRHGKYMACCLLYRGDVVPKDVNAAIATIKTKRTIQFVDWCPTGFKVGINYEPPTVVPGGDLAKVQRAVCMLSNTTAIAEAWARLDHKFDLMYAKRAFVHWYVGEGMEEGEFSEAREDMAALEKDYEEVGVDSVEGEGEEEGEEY
The next assay concerns WiDr. In words: Compound was tested for its cytotoxicity against WiDr human colon cancer cell line. It counts as functional, cell-based.
In another assay the test system is NCI-H69. In words: Compound was tested for its cytotoxicity against NCI-H69 human lung cancer cell line. The assay is classed as functional, cell-based.
In another assay the test system is PC-9. In words: Compound was tested for its cytotoxicity against PC-9 human lung cancer cell line. The assay is classed as functional, cell-based.
In assay [3] the target is T1, Tubulin alpha chain. In words: Compound was evaluated for its anti tubulin activity.

T1 sequence (P02550 whole entry, looked up): as above

The term IC50 denotes the concentration that gives 50% inhibition. On to `CCCCCCCCCCCC/C=C\[C@@H]1CSC([C@@H]2C[C@@H]2C)=N1`, for which the IC50 against Tubulin alpha chain [1] is > 50 µM; with WiDr, 84.9 µg/mL (≈ 253 µM); with NCI-H69, 54.1 µg/mL (≈ 161 µM); in the assay on PC-9, 77.2 µg/mL (≈ 230 µM). In assay [2], the Activity came out at 100%.
`C=CC[C@@H](CC/C(C)=C/C=C/CC/C=C\[C@@H]1CSC(C2CC2C)=N1)OC` (single isomer, unassigned) [CURACIN A] showed an IC50 at Tubulin alpha chain [3] of 2.5 µM. This lies in the single-digit micromolar range.
Regarding `CC(C)=C/C=C/CC/C=C\[C@@H]1CSC([C@@H]2C[C@@H]2C)=N1`, the IC50 against Tubulin alpha chain [1] is > 50 µM. The same compound had an Activity in assay [2] of 100%.
In the case of `C/C=C/CC/C=C\[C@@H]1CSC([C@@H]2C[C@@H]2C)=N1`, the IC50 at Tubulin alpha chain [1] was > 50 µM; in the assay on WiDr it was 33.7 µg/mL (≈ 143 µM); in the assay on NCI-H69 it was 31.7 µg/mL (≈ 135 µM); with PC-9 it was 37.7 µg/mL (≈ 160 µM). The compound further had an Activity in assay [2] of 84%.
`CCCCCCc1ccc(CC/C=C\[C@@H]2CSC([C@@H]3C[C@@H]3C)=N2)cc1`: the IC50 on Tubulin alpha chain [1] was > 50 µM; with WiDr, 42.5 µg/mL (≈ 119 µM); with NCI-H69, 76.5 µg/mL (≈ 215 µM); in the assay on PC-9, 50.2 µg/mL (≈ 141 µM). Besides, the Activity in assay [2] is 95%.
For the compound `C=CC[C@@H](CC/C(C)=C/C=C/CC/C=C\[C@@H]1CSC([C@@H]2C[C@@H]2C)=N1)OC` [CURACIN A], the IC50 on Tubulin alpha chain [1] was 2.5 µM; in the assay with WiDr, < 0.2 µg/mL; with NCI-H69 it was 0.89 µg/mL (≈ 2.38 µM); in the assay on PC-9 it was 19.6 µg/mL (≈ 52.5 µM).
In the case of `C[C@H]1C[C@H]1C1=N[C@H](/C=C\CCCc2ccccc2)CS1`, the IC50 at Tubulin alpha chain [1] was > 50 µM; in the assay with WiDr it was 19.3 µg/mL (≈ 67.6 µM); in the assay with NCI-H69 it was 45.2 µg/mL (≈ 158 µM); with PC-9, 24 µg/mL (≈ 84 µM). Further, in assay [2], the Activity came to 93%.
`CCCCCCCc1cccc(CC/C=C\[C@@H]2CSC([C@@H]3C[C@@H]3C)=N2)c1`: the IC50 on Tubulin alpha chain [1] is > 50 µM; in the assay on WiDr, 69.3 µg/mL (≈ 187 µM); in the assay with NCI-H69, 64.7 µg/mL (≈ 175 µM); in the assay on PC-9, 35.5 µg/mL (≈ 96.1 µM). Moreover, the Activity in assay [2] was found to be 85%.
With `C[C@H]1C[C@H]1C1=N[C@H](/C=C\CCc2ccccc2)CS1`, the IC50 at Tubulin alpha chain [1] is > 50 µM; in the assay with WiDr, 19.6 µg/mL (≈ 72.3 µM); in the assay on NCI-H69, 34.1 µg/mL (≈ 125 µM); with PC-9, 30.1 µg/mL (≈ 111 µM). In addition, in assay [2], the Activity was found to be 71%.
